# Read-outs that look alike come from different tables or passages of the source.
# Assays:
# [1] = Cyclization kinetics of model thioethers and sulfoxides by RP-HPLC; assay type: physicochemical; settings: for half-life at 200 μM: PBS, pH 7.4, 200 μM in PBS/DMSO (98:2); for half-life at 200 μM / cyclization, result in words: 37 °C, pH 7.4; for cyclization, result in words: 200 μM in PBS/DMSO (98:2)
# Experimental: The basic premise of this ROS-sensitive prodrug strategy relies on two properties: (1) the substantial rate enhancement of the cyclization/condensation reaction after oxidation and (2) the ability for ROS to oxidize a thioether to sulfoxide rapidly, which we have recently extensively studied. To examine the first aspect, we studied the rate of cyclization of the thioethers (3a–3g) and sulfoxides (4a–4g) using RP-HPLC (Figure and Figures S1–S5). Briefly, 200 μM thioether or sulfoxide was incubated in PBS (containing 2% DMSO) at 37 °C. Aliquots of the reaction solution were sampled at designated time points for examination of the reaction kinetic profiles. As representative examples, the cases of thioether-sulfoxide pairs 3 a /4a (EWG: −CN), 3 e /4e (EWG: −CONH2), and 3 f /4f (EWG: −CONHC3H7) are described (Figure ). […] As a subsequent step, we were interested in the ability to tune the reaction kinetics and the magnitude of the reaction rate separation between the thioether and sulfoxide analogs. We are especially interested in searching for systems that offer a high degree of separation in reaction kinetics before and after thioether oxidation.
# First, 10 mM stock solutions of compound 3 or 4 were prepared in DMSO. […] The resultant solution was kept at 37 °C. […] Either gradient method A or B was used to monitor the reaction.
# [2] = ROS-triggered drug release from drug conjugates after oxidation by NaOCl (RP-HPLC); settings: 100 μM conjugate, 150 μM NaOCl, 37 °C, pH 7.4, 20 min
# Experimental: Specifically, to study drug release after oxidation by NaOCl, 100 μM of Flox-CReKT 12a was incubated with 150 μM sodium hypochlorite (NaOCl) in PBS (containing 1% DMF) under near-physiological conditions (Figure ). The reaction progress was monitored by RP-HPLC, where 20 μL of the incubated mixture was sampled and analyzed at designated time points (Figure ). Drug release t 1/2 was calculated by plotting the peak area of Flox released against time (Figure a). […] Specifically, oxidation of Flox-CReKT conjugate 12a is designed to lead to sulfoxide analogue 13a, which undergoes cyclization to release the Flox with the formation of the cyclized byproduct (6a) (Figure ).
# We used the same protocol as discussed in the previous section of ROS-sensitive drug release to study the effect of pH. […] Furthermore, we used either a citrate- or PBS-based buffer to test the effect of pH on the oxidation step.
# To monitor the drug release in the presence of ROS, drug conjugate 12 was incubated with ROS under near-physiological conditions. First, a 10 mM stock solution of the drug conjugate was prepared in DMF. Then, 10 μL was taken from the stock solution and added to 975 μL of the buffer. Then, 15 μL of 10 mM ROS solution was added to the solution. The resultant solution was kept at 37 °C. At different time points, 20 μL was taken from the reaction mixture and injected into HPLC.
# [3] = Drug release / stability of drug conjugates in buffer in the absence of ROS (RP-HPLC); assay type: physicochemical; settings: 100 μM, 37 °C
# Experimental: Cellular compartments can have slightly different pH.
# To monitor drug release in the absence of ROS, the same procedure of the model compound was followed with a small change of stock solution solvent. For drug conjugates 12, DMF was used to prepare the stock solution. Briefly, a 10 mM stock solution of the drug-conjugated compound was prepared in DMF. […] The resultant solution was kept at 37 °C.
# RS4;11 cells = experiment: Cytotoxicity, CCK-8 assay; assay type: cell-based; settings: Homo sapiens, RS4-11, 72 h
# Experimental: To conduct this set of experiments, a 96-well plate (8 × 12) was used. First, RS4;11 cells were seeded in a 96-well plate 1 day before the experiment (RPMI-1640, containing 10% FBS and 1% PNS). Then, the cells were incubated with different concentrations of compounds with or without the stimulant. Specifically, the final concentrations of compounds were 0.1 pM–100 μM with or without H2O2 (25 μM) stimulation. The plate containing cells were incubated for 72 h at 37 °C with 5% CO2. The cell viability was tested using the CCK-8 assay. Specifically, after 72 h of incubation, 10 μL of the CCK-8 assay reagent was added to each well. Then, the plate was further incubated for 2 h. After that, the plate was gently shaken for 1 min, and then absorbance was recorded at 450 nm. The percentage cell viability was calculated using the following formula: cell viability (%) = ((A 450 of treated wells – A 450 of control wells)/(A 450 of no treatment wells – A 450 of control wells)) × 100. The experiment was conducted in triplicates.
# [4] = parameters: method as in number not shown in text; settings: ref number not shown in text; cited from earlier work
# RAW264.7 cells = experiment: Intracellular ROS detection using DCFH-DA fluorescent probe; assay type: cell-based; settings: 10 μM DCFH-DA, PMA 2 μM or LPS 2 μg/mL, 4 h, λex 495 nm, λem 530 nm
# Description: To correlate the intracellular drug release, we also studied intracellular ROS formation upon stimulation with LPS or PMA or using RAW264.7 cells. We chose one of the widely used fluorescent probes, DCFH-DA, which is the diester version of DCFH capable of cellular penetration. − Subsequent hydrolysis of the ester groups would lead to DCFH, which is not readily cell membrane permeable and thus is trapped intracellularly. […] Similar to the intracellular payload release studies, we used RAW264.7 cells for intracellular ROS determination work. Briefly, 10 μM of DCFH-DA was incubated with and without LPS/PMA. Specifically, three groups were tested with the first being 10 μM of DCFH-DA only, the second being 10 μM of DCFH-DA and 2 μg/mL of LPS, and the third being 10 μM of DCFH-DA and 2 μM of PMA. The cells were incubated for 4 h before fluorescence measurements using a plate reader (λex 495 nm and λem 530 nm). […] Working solutions were prepared by dilution in DMEM (Fluorobright DMEM, containing 1% PNS). DCFH-DA (10 μM) was prepared by adding 4 μL of 10 mM DCFH-DA in 3.996 mL of media. DCFH-DA (10 μM) and LPS (2 μg/mL) were prepared by adding 4 μL of 10 mM DCFH-DA and 4 μL of 2 μg/μL of LPS in 3.994 mL of media. […] Subsequently, the plate was incubated 4 h before fluorescence measurements using a plate reader (λex 495 nm and λem 530 nm). […]
# [5] = read-out: t 1/2 (thioether) (3a–g), cyclization (converted)
# [6] = read-out: t 1/2 (sulfoxide) (4a–g), cyclization (converted)
compound,measurement,setting,value
"COC(=O)c1ccccc1SCC#N [3a, Methyl 2-((Cyanomethyl)thio)benzoate]",half-life at 200 μM,[1]; [5],5 h
"COC(=O)c1ccccc1SCC(F)(F)F [3b, Methyl 2-((2,2,2-Trifluoroethyl)thio)benzoate]","cyclization, result in words",[1],did not lead to cyclization
same,half-life at 200 μM,[1]; [5],> 48 h
"COC(=O)c1ccccc1SCC(=O)C(C)(C)C [3c, Methyl 2-((3,3-Dimethyl-2-oxobutyl)thio)benzoate]",half-life at 200 μM,[1]; [5],10 h
"COC(=O)CSc1ccccc1C(=O)OC [3d, Methyl 2-((2-Methoxy-2-oxoethyl)thio)benzoate]",half-life at 200 μM,[1]; [5],6 h
"COC(=O)c1ccccc1SCC(N)=O [3e, Methyl 2-((2-Amino-2-oxoethyl)thio)benzoate]",half-life at 200 μM,[1]; [5],> 48 h
"CCCNC(=O)CSc1ccccc1C(=O)OC [3f, Methyl 2-((2-Oxo-2-(propylamino)ethyl)thio)benzoate]","cyclization, result in words",[1],no cyclization
same,"cyclization after 5 days, result in words","[1]; near-physiological conditions, 5 days",no significant cyclization
"COC(=O)c1ccccc1SCC(=O)O [3g, 2-((2-(Methoxycarbonyl)phenyl)thio)acetic Acid]","cyclization, result in words",[1],cyclization did not happen
same,half-life at 200 μM,[1]; [5],> 48 h
"COC(=O)c1ccccc1[S+]([O-])CC#N (stereo not drawn) [4a, Methyl 2-((Cyanomethyl)sulfinyl)benzoate]",half-life at 200 μM,[1]; [6],0.667 h
"COC(=O)c1ccccc1[S+]([O-])CC(F)(F)F (stereo not drawn) [4b, Methyl 2-((2,2,2-Trifluoroethyl)sulfiny)benzoate]","cyclization, result in words",[1],did not lead to cyclization
same,half-life at 200 μM,[1]; [6],> 48 h
"COC(=O)c1ccccc1[S+]([O-])CC(=O)C(C)(C)C (stereo not drawn) [4c, Methyl 2-((3,3-Dimethyl-2-oxobutyl)sulfinyl)benzoate]",half-life at 200 μM,[1]; [6],1.5 h
"COC(=O)C[S+]([O-])c1ccccc1C(=O)OC (stereo not drawn) [4d, Methyl 2-((2-Methoxy-2-oxoethyl)sulfinyl)benzoate]",half-life at 200 μM,[1]; [6],0.667 h
"COC(=O)c1ccccc1[S+]([O-])CC(N)=O (stereo not drawn) [4e, Methyl 2-((2-Amino-2-oxoethyl)sulfinyl)benzoate]",half-life at 200 μM,[1]; [6],~2.17 h
"CCCNC(=O)C[S+]([O-])c1ccccc1C(=O)OC (stereo not drawn) [4f, Methyl 2-((2-Oxo-2-(propylamino)ethyl)sulfinyl)benzoate]",half-life at 200 μM,[1]; [6],7.5 h
"COC(=O)c1ccccc1[S+]([O-])CC(=O)O (stereo not drawn) [4g, 2-((2-(Methoxycarbonyl)phenyl)sulfinyl)acetic Acid]","cyclization, result in words",[1],cyclization did not happen
same,half-life at 200 μM,[1]; [6],> 48 h
"N#CCSc1ccccc1C(=O)OC1CC(n2cc(F)c(=O)[nH]c2=O)OC1CO [12a, (2S,3R,5S)-5-(5-Fluoro-2,4-dioxo-3,4-dihydropyrimidin-1(2H)-yl)-2-(hydroxymethyl)tetrahydrofuran-3-yl 2-((Cyanomethyl)thio)benzoate]",Flox released at the 20 min time point,[2],90%
"CCCNC(=O)CSc1ccccc1C(=O)O[C@H]1C[C@H](n2cc(F)c(=O)[nH]c2=O)O[C@@H]1CO [12f, (2R,3S,5R)-5-(5-Fluoro-2,4-dioxo-3,4-dihydropyrimidin-1(2H)-yl)-2-(hydroxymethyl)tetrahydrofuran-3-yl 2-((2-Oxo-2-(propylamino)ethyl)thio)benzoate]",stability in the absence of ROS for up to 72 h,"[3]; pH 7.4, 72 h",remained intact
same,IC50,RS4;11 cells; + 25 μM H2O2,202 ± 3 nM
same,IC50,RS4;11 cells; without H2O2,197 ± 3 nM
"CCc1c2c(nc3ccc(OC(=O)c4ccccc4SCC(N)=O)cc13)-c1cc3c(c(=O)n1C2)COC(=O)[C@]3(O)CC [14e, (S)-4,11-Diethyl-4-hydroxy-3,14-dioxo-3,4,12,14-tetrahydro-1H-pyrano[3′,4’:6,7]indolizino[1,2-b]quinolin-9-yl 2-((2-Amino-2-oxoethyl)thio)benzoate]",SN-38 released within 24 h without oxidation,"[3]; pH 7.4, 24 h",about 25%
O=C(O)c1ccccc1C1c2cc(Cl)c(O)cc2Oc2cc(O)c(Cl)cc21 [DCFH],second-order rate constant of reaction with hypochlorite,[4],580 ± 18 M^–1 s^–1
"CCCCCCCCCCCCCC(=O)O[C@@H]1[C@@H](C)[C@@]2(O)[C@@H](C=C(CO)C[C@]3(O)C(=O)C(C)=C[C@@H]23)[C@@H]2C(C)(C)[C@]12OC(C)=O [PMA, phorbol 12-myristate 13-acetate]",fluorescence intensity of DCFH-DA probe upon stimulation (intracellular ROS),RAW264.7 cells,significantly higher fluorescence intensity
lipopolysaccharides [LPS],fluorescence intensity of DCFH-DA probe upon stimulation (intracellular ROS),RAW264.7 cells,marginal increase
